“Also recorded” adds a separate entry of the source. Where two headings read alike, the source gives them in different places.
Key:
COX-2 = molecular target: T1, COX-2 (Homo sapiens, UniProt P35354); test: IC50 determinations using purified enzymes (TLC assay), COX-2; format: biochemical; set-up: made in house; host or cells: Sf9 insect cells; conditions: assayed against purified enzymes, read-out: IC50 COX-2
T1 sequence (P35354 18-604): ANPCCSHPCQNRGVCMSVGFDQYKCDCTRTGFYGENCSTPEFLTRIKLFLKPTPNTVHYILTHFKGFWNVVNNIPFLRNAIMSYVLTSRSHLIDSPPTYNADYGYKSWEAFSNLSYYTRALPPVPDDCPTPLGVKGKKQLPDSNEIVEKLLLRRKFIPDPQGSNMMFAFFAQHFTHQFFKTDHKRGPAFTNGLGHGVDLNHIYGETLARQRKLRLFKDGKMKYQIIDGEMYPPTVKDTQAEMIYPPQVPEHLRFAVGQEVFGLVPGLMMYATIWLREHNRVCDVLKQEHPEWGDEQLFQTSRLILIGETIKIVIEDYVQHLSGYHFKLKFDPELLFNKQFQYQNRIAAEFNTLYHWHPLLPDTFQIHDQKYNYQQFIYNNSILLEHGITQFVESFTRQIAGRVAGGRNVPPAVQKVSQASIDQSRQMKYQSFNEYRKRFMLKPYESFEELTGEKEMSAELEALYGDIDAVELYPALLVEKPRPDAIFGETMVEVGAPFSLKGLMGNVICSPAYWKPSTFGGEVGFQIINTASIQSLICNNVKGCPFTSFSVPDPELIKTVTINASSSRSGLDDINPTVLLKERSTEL

ovine COX-1 = molecular target: T2, ovine COX-1 (Ovis aries, UniProt P05979); test: IC50 determinations using purified enzymes (TLC assay), COX-1; format: biochemical; conditions: assayed against purified enzymes
T2 construct: can be purified from ovine seminal vesicles by standard procedures; from tissue; host or cells: ovine seminal vesicles
T2 sequence (P05979 25-600): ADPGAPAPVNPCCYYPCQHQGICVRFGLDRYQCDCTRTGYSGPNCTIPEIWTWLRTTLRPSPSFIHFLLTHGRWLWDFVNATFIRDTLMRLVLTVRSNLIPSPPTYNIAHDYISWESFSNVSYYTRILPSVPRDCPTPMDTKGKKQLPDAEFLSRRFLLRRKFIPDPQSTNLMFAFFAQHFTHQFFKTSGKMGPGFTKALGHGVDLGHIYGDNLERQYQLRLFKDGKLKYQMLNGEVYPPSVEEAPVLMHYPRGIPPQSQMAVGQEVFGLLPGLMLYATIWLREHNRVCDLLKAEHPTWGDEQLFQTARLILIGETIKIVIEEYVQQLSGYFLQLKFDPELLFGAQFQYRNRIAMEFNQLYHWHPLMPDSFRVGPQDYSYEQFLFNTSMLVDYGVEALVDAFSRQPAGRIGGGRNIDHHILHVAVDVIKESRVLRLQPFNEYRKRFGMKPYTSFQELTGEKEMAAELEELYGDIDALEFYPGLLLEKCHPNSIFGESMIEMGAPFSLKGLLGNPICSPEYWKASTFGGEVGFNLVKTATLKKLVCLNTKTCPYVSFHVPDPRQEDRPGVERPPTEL

RAW264.7 cells = test: In vitro cell imaging, LPS/IFNγ-activated RAW264.7 cells; format: cell-based, mouse; conditions: for fluorescence imaging of cells: 200 nM, 30 minutes, LPS-activated RAW264.7; for fluorescent signal after indomethacin pretreatment: indomethacin (20 μM) pretreatment, RAW264.7
Method: RAW264.7 cells (a line established from a tumor induced in a mouse by Abelson murine leukemia virus and available from the American Type Culture Collection, Manassas, Va., United States of America) were grown overnight on 35 mm culture dishes (MatTek Corp., Ashland, Mass., United States of America) with glass coverslips in Dulbecco's Modified Eagle Medium (DMEM) plus 10% heat-inactivated fetal bovine serum (FBS). Platings of cells were done in order to reach 30% confluency the next day. After overnight growth, the growth medium was replaced with 2 ml serum-free DMEM per dish. Individual dishes then received 200 ng/ml LPS plus 10 units/ml murine IFNγ (Roche Applied Science, Indianapolis, Ind., United States of America) for 6 hours to induce COX-2. […] After 30 minutes, the cells were washed briefly three times in medium and incubated in Hank's balanced salt solution (HBSS)/Tyrode's for 60 minutes at 37° C. After 60 minutes, the HBSS/Tyrode's was removed and fresh HBSS/Tyrode's was added. The cells were immediately imaged using a Zeiss Axiovert 25 Microscope (propidium iodide filter/2-3 sec exposure/gain of 2).

[1] = system: COX-2-transformed HEK293 cells; test: In vitro cell imaging, HEK293 cells expressing human COX-2; format: cell-based; conditions: HEK293/COX-2; for fluorescent staining of cells: 200 nM; for fluorescent staining after indomethacin pretreatment: indomethacin (20 μM) pretreatment
Method: A second experimental design employed HEK293 cells (a cell line generated by transformation of human embryonic kidney cell cultures with adenovirus) that had been transformed with an expression construct encoding a constitutively active human COX-2. For imaging experiments, cells were also plated on 35 mm culture dishes (MatTek Corp., Ashland, Mass., United States of America) with glass coverslips and grown to 70% confluency in DMEM plus 20% FBS. When the appropriate confluency was reached (approximately 48 hours after plating), the medium was replaced with DMEM/1% FBS and exposed to 200 nM Compound 27vv or Compound 27ww as described hereinabove. After 30 minutes, the cells were washed briefly 3 times and incubated in DMEM/10% FBS for 60 minutes at 37° C. After 60 minutes, the medium was removed and the cells were washed with HBSS/Tyrode's. After the second wash, fresh HBSS/Tyrode's was added and the cells were immediately imaged using a Zeiss Axiovert 25 Microscope (propidium iodide filter/3 sec exposure/gain of 3).

Row | SMILES | IC50 (COX-2; Table 3) | IC50 (ovine COX-1; Table 3) | fluorescence imaging of cells (RAW264.7 cells) | fluorescent signal after indomethacin pretreatment (RAW264.7 cells) | fluorescent staining of cells [1] | fluorescent staining after indomethacin pretreatment [1] | IC50 (COX-2; Table 2) | IC50 (ovine COX-1; Table 2)
1 | COc1ccc2c(c1)c(CC(=O)NCCNS(=O)(=O)c1ccc(/N=N/c3ccc(N(C)C)cc3)cc1)c(C)n2C(=O)c1ccc(Cl)cc1 [Compound 27aa, N-(2-Dabsylaminoethyl)-2-{1-(4-chlorobenzoyl)-5-methoxy-2-methyl-1H-indol-3-yl}acetamide] | 0.08 µM | > 25 µM | – | – | – | – | – | –
2 | COc1ccc2c(c1)c(CC(=O)NCCCCNC(=O)c1ccc(C3=c4cc5c6c(c4Oc4c3cc3c7c4CCCN7CCC3)CCC[N+]=6CCC5)c(C(=O)[O-])c1)c(C)n2C(=O)c1ccc(Cl)cc1 [Compound 27eee] | 0.7 µM | > 25 µM | good specific staining; also recorded: consistent fluorescent signals over control cells | reducible by pretreatment with indomethacin | good specific staining; also recorded: fluorescence above the level observed in control HEK293 cells | reducible by pretreatment with indomethacin | – | –
3 | COc1ccc2c(c1)c(CC(=O)NCCCCNC(=O)Cc1ccc(Nc3ccc([N+](=O)[O-])c4nonc34)cc1)c(C)n2C(=O)c1ccc(Cl)cc1 [Compound 27ii, N-([2-{4-(7-nitrobenzo[1,2,5]oxadiazol-4-ylamino)phenyl}acetamido]but-4-yl)-2-{1-(4-chlorobenzoyl)-5-methoxy-2-methyl-1H-indol-3-yl]acetamide] | 0.5 µM | > 25 µM | – | – | – | – | – | –
4 | COc1ccc2c(c1)c(CC(=O)NCCCCNC(=O)c1ccc(C(=O)O)c(-c3c4ccc(=O)cc-4oc4cc(O)ccc34)c1)c(C)n2C(=O)c1ccc(Cl)cc1 [Compound 27qq, N-[(Fluorescein-6-carboxylamido)but-4-yl]-2-[1-(4-chlorobenzoyl)-5-methoxy-2-methyl-1H-indol-3-yl)acetamide] | > 25 µM | > 25 µM | – | – | – | – | – | –
5 | CC[N+](CC)=c1ccc2c(-c3ccccc3)c(C)c(/C=C/C=C3/N(CCCCCC(=O)NCCCCNC(=O)Cc4c(C)n(C(=O)c5ccc(Cl)cc5)c5ccc(OC)cc45)c4ccc(S(=O)(=O)[O-])cc4C3(C)C)oc-2c1 [Compound 27ttt] | 1 µM | > 25 µM | – | – | – | – | – | –
6 | CC[N+](CC)=c1ccc2nc3c(cc(NC(=O)CCOCCOCCOCCOCCNC(=O)Cc4c(C)n(C(=O)c5ccc(Cl)cc5)c5ccc(OC)cc45)c4ccccc43)oc-2c1 [Compound 27uu, N-[5-)1-{1-(4-chlorobenzoyl)-5-methoxy-2-methyl-1H-indol-3-yl}-2-6,9,12,15-tetraoxa-3-azaoctadecanamido]-9H-benzo[a]penoxazin-9-ylidene)-N-ethylethanaminium perchlorate] | 1.7 µM | > 25 µM | – | – | – | – | – | –
7 | COc1ccc2c(c1)c(CC(=O)NCCCCNC(=O)c1ccc(C(=O)[O-])c(C3=c4cc5c6c(c4Oc4c3cc3c7c4CCCN7CCC3)CCC[N+]=6CCC5)c1)c(C)n2C(=O)c1ccc(Cl)cc1 [Compound 27vv] | 3.5 µM | > 25 µM | LPS activation enhanced imaging; also recorded: consistent fluorescent signals over control cells | reduced the fluorescent signal | clearly observable fluorescent staining; also recorded: fluorescence above the level observed in control HEK293 cells | reduced | – | –
8 | COc1ccc2c(c1)c(CC(=O)NCCNS(=O)(=O)c1cccc3c(N(C)C)cccc13)c(C)n2C(=O)c1ccc(Cl)cc1 [Compound 27x] | 0.066 µM | > 25 µM | – | – | – | – | – | –
9 | COC(=O)c1cc(-c2ccc(C)cc2)n(-c2ccc(S(N)(=O)=O)cc2)n1 [Compound 30b] | – | – | – | – | – | – | 0.92 µM | > 25 µM
